{"source": "paper PMC6288471", "about": "(Frontiers in Veterinary Science, 2018)", "key": {"[1]": {"test": "Pharmacokinetics of apixaban after oral and intravenous administration; plasma concentrations by UPLC-MS, two-compartment model", "format": "in vivo", "conditions": "horses; for half-life / clearance / Vd: iv", "protocol": "The first and last treatments for each horse were IV administration of drug or placebo (Figure 1). […] Investigators were blinded to each treatment until the conclusion of the study.\nBlood samples were collected before drug administration (time 0) and at 3 (IV) or 15 (PO) min, then at 30, 45 min, 1, 2, 3, 4, 6, 8, and 24 h after drug administration into 6-mL syringes (Monoject Syringe, Covidien Ltd, Mansfield, MA, USA) prefilled with 3.8% citrate anticoagulant (Sigma-Aldrich, St Louis, MO, USA) maintaining a ratio of 9:1 blood:citrate. The citrate-anticoagulated blood was used to prepare platelet-poor plasma (PPP) for measurement of UPLC-MS concentrations, anti-Xa activities and dilute prothrombin times (dPT) and platelet-rich plasma (PRP) for flow cytometric analysis of ex vivo platelet activation in response to exposure to EHV-1. Blood was also collected into EDTA- and non-anticoagulant samples for clinical pathologic testing before and 24 h after each treatment (Figure 1). With the exception of 24 h samples, blood was collected at each time point through an indwelling jugular catheter (14 G × 15 cm, Milacath®, MILA International, Florence, KY, USA) after removing 20–30 mL of blood. Patency of the catheters was maintained by flushes with sterile saline solution (0.9% sodium chloride injection USP, Baxter Healthcare Corporation, Deerfield, IL, USA) after each blood draw. The catheter was removed after collection of the 8 h sample. For IV administration, a second catheter was placed in the opposite jugular vein for bolus drug delivery and removed immediately after drug administration and flushing of the catheter with sterile saline. For the 24 h sample, blood was collected from the jugular vein (the vein contralateral to that used for the indwelling catheter) into a 3.8% citrate anticoagulant prefilled 6-mL syringe via an 18 G needle (Monoject Veterinary Needle, Covidien Ltd, Mansfield, MA, USA) and into EDTA- and non-anticoagulant vacutainers (Becton-Dickinson, Franklin Lakes, NJ, USA) via a vacutainer needle (21 G, Becton-Dickinson Eclipse™ Vacutainer® with pre-attached holder).\nThis was performed as previously described ([33]). Analysis by UPLC-MS/MS was performed on a 2D UPLC system (Waters Acquity UPLC H-class with 2D Technology System, Waters GmbH, Eschborn, Germany) directly coupled to a Xevo TQ-S tandem mass spectrometer (Waters GmbH, Eschborn, Germany) which was operated in electrospray positive ionization mode. The system control and data acquisition were performed using MassLynx NT 4.1 software with automated data processing by the MassLynx QuanLynx program provided with the instrument. The lower limit of detection for all DOACs of the UPLC-MS/MS method was < 0.2 ng/mL. Since DOAC values < 7 ng/ml were not clinically relevant, all time points below this value were considered zero.\nPharmacokinetic analysis was performed using a two-compartment open model with weighting of 1/y^2 (Phoenix®, WinNonlin® software, Certara Inc., St. Louis, Missouri).\nSecondary parameters calculated include distribution (α) and elimination (β) half-lives (T½), microdistribution rate constants, area-under-the-curve (AUC), apparent volume of distribution at steady-state (VSS), systemic clearance (CL), and mean residence time (MRT)."}, "[2]": {"test": "Clinical pathologic testing: automated hemogram", "format": "in vivo", "conditions": "horses, 24 h after PO or IV administration", "protocol": "Automated hemogram results were obtained from the EDTA-anticoagulated blood with a hematology analyzer (ADVIA 2120, Siemens Healthcare Diagnostics Inc., Tarrytown, NJ, USA). To verify the automated platelet counts, modified Wright's-stained blood smears were evaluated for platelet clumps by trained medical technologists. Biochemical analysis for renal analytes (serum urea nitrogen and creatinine concentrations), liver enzymes (sorbitol dehydrogenase, glutamate dehydrogenase, aspartate aminotransferase and gamma glutamyl transferase activities), protein-related analytes (total protein, albumin, and globulin concentrations), and the acute phase protein, serum amyloid A, were performed with an automated chemistry analyzer (Hitachi P modular, Roche Diagnostics, Indianapolis, IN, USA) using manufacturer's reagents, with the exception of sorbitol dehydrogenase (Sigma-Aldrich), glutamate dehydrogenase (Randox Laboratories Ltd, Antrim, UK), and serum amyloid A (LZ test Eiken-SAA, Mast House, Merseyside, UK)."}, "[3]": {"test": "Clinical observation for adverse effects / safety testing of a trial IV dose", "format": "in vivo, horses", "protocol": "The paste was transferred to a 60 mL syringe (Becton-Dickinson) and stored at room temperature until administration. For IV formulation, crushed tablets were dissolved in a vehicle consisting of 10% v/v N,N-dimethylacetamide (EMD Millipore, Billerica, MA, USA), 17% v/v propylene glycol (Sigma-Aldrich), 17% v/v dimethyl sulfoxide (DMSO, Sigma-Aldrich), and 56% v/v deionized water (MilliQ® water, Q-Pod®, EMD Millipore). After vigorous vortexing, the formulation was sterile filtered through a […] cellulose acetate filter (Corning Inc., Corning, NY, USA) then drawn into 60 mL syringes. The IV formulation was prepared 24 h before administration and stored at room temperature. […] To ensure that the vehicle was not toxic, safety testing was performed on a trial IV dose given to a different horse.\nSome individual horses had test results that were slightly above or below the established reference intervals, but this likely represented normal biological variability. […] Again, we attributed this to normal biological variation."}, "[4]": {"conditions": "rabbits, cited from earlier work"}, "[5]": {"conditions": "rats; cited from earlier work"}, "[6]": {"conditions": "chimpanzees; cited from earlier work"}, "[7]": {"conditions": "other animals; cited from earlier work"}, "plasma protein": {"system": "plasma protein", "conditions": "rabbits; cited from earlier work"}, "P-glycoprotein": {"system": "P-glycoprotein", "conditions": "cited from earlier work"}, "[8]": {"conditions": "single oral dose 0.2 mg/kg, 0.2 mg/kg"}}, "note": "Entries after “also recorded” stand apart in the source; their conditions may differ. Like-named read-outs stand apart in the source and are kept apart here.", "data": [{"smiles": "COc1ccc(-n2nc(C(N)=O)c3c2C(=O)N(c2ccc(N4CCCCC4=O)cc2)CC3)cc1", "note": "[apixaban]", "values": [{"measurement": "half-life", "setting": "[1]; horse, plasma, IV administration, read-out: elimination half-life (converted)", "result": "78 ± 12", "unit": "min"}, {"measurement": "clearance", "setting": "[1]; horse, plasma, IV administration, read-out: rate of clearance (converted)", "result": 2.53, "unit": "mL/min/kg"}, {"measurement": "Vd", "setting": "[1]; horse, plasma, IV administration, read-out: volume of distribution (VDSS)", "result": "0.0933 ± 0.0756", "unit": "L/kg"}, {"measurement": "Tmax", "setting": "[1]; horse, plasma, IV administration, read-out: time of peak plasma concentration (converted)", "result": 3, "unit": "min"}, {"measurement": "volume of distribution (VDSS)", "setting": "[1]; IV administration", "result": "~ 90 mL/kg"}, {"measurement": "time by which plasma apixaban decreased to undetectable levels", "setting": "[1]; IV administration, all horses", "result": "≤ 8", "unit": "h"}, {"measurement": "apixaban in plasma after oral administration (UPLC-MS)", "setting": "[1]; [8]", "result": "no detectable apixaban in plasma; also recorded: not detected in plasma"}, {"measurement": "oral absorption", "setting": "[1]; [8]", "result": "not orally absorbed"}, {"measurement": "clearance", "setting": "[1]; plasma, single IV dose […], read-out: CL (systemic clearance), geometric mean (converted)", "result": 2.45, "unit": "mL/min/kg"}, {"measurement": "clearance", "setting": "[1]; plasma, single IV dose […], read-out: CL (systemic clearance), mean (converted)", "result": 2.53, "unit": "mL/min/kg"}, {"measurement": "Vd", "setting": "[1]; plasma, single IV dose […], read-out: VC (apparent volume of distribution for central compartment), geometric mean", "result": 0.0164, "unit": "L/kg"}, {"measurement": "Vd", "setting": "[1]; plasma, single IV dose […], read-out: VC (apparent volume of distribution for central compartment), mean", "result": 0.0201, "unit": "L/kg"}, {"measurement": "Vd", "setting": "[1]; plasma, single IV dose […], read-out: VSS (volume of distribution at steady-state), geometric mean", "result": 0.0718, "unit": "L/kg"}, {"measurement": "Vd", "setting": "[1]; plasma, single IV dose […], read-out: VSS (volume of distribution at steady-state), mean", "result": 0.0933, "unit": "L/kg"}, {"measurement": "half-life", "setting": "[1]; plasma, single IV dose […], read-out: t½β (half-life of the elimination phase), geometric mean (converted)", "result": 76.2, "unit": "min"}, {"measurement": "half-life", "setting": "[1]; plasma, single IV dose […], read-out: t½β (half-life of the elimination phase), mean (converted)", "result": 76.8, "unit": "min"}, {"measurement": "changes in hematologic test results", "setting": "[2]", "result": "no significant changes"}, {"measurement": "clinically apparent adverse effects", "setting": "[3]; horses, oral and IV formulations", "result": "no clinically apparent adverse effects"}, {"measurement": "changes in clinical pathologic test results", "setting": "[3]; trial IV dose in a different horse, 24 h after IV bolus", "result": "no changes"}, {"measurement": "adverse clinical reactions", "setting": "[3]; trial IV dose of dissolved apixaban in a different horse", "result": "no adverse clinical reactions"}, {"measurement": "half-life", "setting": "[4]; 2.5 mg/kg IV dose", "result": 36, "unit": "min"}, {"measurement": "oral absorption", "setting": "[4]; 10 mg/kg", "result": 3, "unit": "%"}, {"measurement": "availability after oral administration", "setting": "[5]", "result": 50, "unit": "%"}, {"measurement": "availability after oral administration", "setting": "[6]", "result": 50, "unit": "%"}, {"measurement": "fecal route of elimination, share of the dose", "setting": "[7]", "result": "more than 54%"}, {"measurement": "apixaban protein bound", "setting": "plasma protein", "result": "~ 60%"}, {"measurement": "P-glycoprotein substrate", "setting": "P-glycoprotein", "result": "substrate"}]}]}
